According to ChEMBL document CHEMBL1147183, “Design, synthesis, and evaluation of non-steroidal farnesoid X receptor (FXR) antagonist” (Bioorg Med Chem, 2007):
pEC50, pIC50: −log10 of the molar value. Calls of active or inactive are those of the source. The rule behind the calls is not given here.

What was measured:
[1] = target: T1, Bile acid receptor (Homo sapiens) (UniProt Q96RI1); experiment: Agonistic activity at FXR in HEK293 cells at 100 uM by GAL4 transactivation activity; type: functional, cell-based
T1 sequence (whole entry): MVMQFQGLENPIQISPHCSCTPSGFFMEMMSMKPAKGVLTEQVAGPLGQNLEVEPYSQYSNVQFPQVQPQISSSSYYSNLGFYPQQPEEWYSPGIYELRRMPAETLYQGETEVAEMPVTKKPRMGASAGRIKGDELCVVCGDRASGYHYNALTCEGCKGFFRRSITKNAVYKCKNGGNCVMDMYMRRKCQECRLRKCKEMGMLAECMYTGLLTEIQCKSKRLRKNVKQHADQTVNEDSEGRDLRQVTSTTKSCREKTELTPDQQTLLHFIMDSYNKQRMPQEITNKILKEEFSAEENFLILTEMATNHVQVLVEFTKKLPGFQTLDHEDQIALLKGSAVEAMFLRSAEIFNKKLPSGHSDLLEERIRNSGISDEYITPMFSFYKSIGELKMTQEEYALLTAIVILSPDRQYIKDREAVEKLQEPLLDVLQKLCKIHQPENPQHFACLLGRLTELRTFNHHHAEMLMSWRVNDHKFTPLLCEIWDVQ

[2] = target: T1, Bile acid receptor (Homo sapiens); experiment: Activity at FXR assessed by ligand-induced co-repressor recruitment by two-hybrid assay system
[3] = target: T2, Bile acid receptor (Homo sapiens, UniProt Q96RI1); experiment: Agonistic activity at FXR in HEK293 cells by GAL4 transactivation activity; type: functional, cell-based
T2 sequence (Q96RI1 whole entry): T1 sequence (whole entry)

[4] = target: T2, Bile acid receptor; experiment: Inhibition of FXR in HEK293 cells in presence of CDCA by GAL4 transactivation activity; type: cell-based
[5] = target: T3, Progesterone receptor (Homo sapiens) (UniProt P06401); experiment: Activity against PR by transactivation activity at 30 uM
T3 sequence (whole entry): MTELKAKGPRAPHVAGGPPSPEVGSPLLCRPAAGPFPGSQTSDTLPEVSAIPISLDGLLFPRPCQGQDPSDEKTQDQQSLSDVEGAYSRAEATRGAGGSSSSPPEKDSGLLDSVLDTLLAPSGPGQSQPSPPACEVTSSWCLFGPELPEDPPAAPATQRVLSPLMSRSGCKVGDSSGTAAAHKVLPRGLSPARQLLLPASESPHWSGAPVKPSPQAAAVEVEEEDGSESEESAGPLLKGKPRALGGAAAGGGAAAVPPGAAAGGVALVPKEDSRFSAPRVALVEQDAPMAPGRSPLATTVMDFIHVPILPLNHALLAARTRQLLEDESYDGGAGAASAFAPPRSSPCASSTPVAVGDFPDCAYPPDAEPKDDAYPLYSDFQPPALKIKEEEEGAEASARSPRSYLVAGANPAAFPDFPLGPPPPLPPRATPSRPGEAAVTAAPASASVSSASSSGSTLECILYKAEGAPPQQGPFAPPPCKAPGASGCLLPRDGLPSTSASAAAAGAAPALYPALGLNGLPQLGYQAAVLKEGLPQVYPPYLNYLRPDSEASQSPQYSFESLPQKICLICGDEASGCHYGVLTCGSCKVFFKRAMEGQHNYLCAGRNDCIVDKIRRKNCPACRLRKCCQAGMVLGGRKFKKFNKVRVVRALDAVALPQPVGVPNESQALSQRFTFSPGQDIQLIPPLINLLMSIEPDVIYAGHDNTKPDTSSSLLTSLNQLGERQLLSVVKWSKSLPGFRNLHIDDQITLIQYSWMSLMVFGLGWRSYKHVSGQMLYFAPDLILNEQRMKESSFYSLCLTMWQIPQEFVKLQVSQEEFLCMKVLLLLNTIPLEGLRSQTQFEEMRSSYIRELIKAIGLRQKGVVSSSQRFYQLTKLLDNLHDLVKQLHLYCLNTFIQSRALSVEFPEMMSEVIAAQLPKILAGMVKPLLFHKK

Row | Structure (SMILES) | Activity [1] | pEC50 [3] | also measured
1 | C/C=C1\C(=O)C[C@H]2[C@@H]3CCC4=CC(=O)CC[C@]4(C)[C@H]3CC[C@]12C | inactive | – | Activity [2]: inactive
2 | CC(C)c1onc(-c2c(Cl)cccc2Cl)c1COc1ccc(C(=O)N(Cc2ccccc2)c2cccc(C(=O)O)c2)c(Cl)c1 | – | 5.60 | –
3 | CC(C)c1onc(-c2c(Cl)cccc2Cl)c1COc1ccc(/C=C/c2cccc(C(=O)N(Cc3ccccc3)Cc3ccccc3)c2)c(Cl)c1 | – | 4.45 | –
4 | O=C(O)c1cccc(/C=C/c2ccc(OCc3c(-c4c(Cl)cccc4Cl)noc3-c3ccc(-c4ccccc4)cc3)cc2Cl)c1 | inactive | – | pIC50 [4]: 4.47
5 | CCCN(C(=O)c1ccc(OCc2c(-c3c(Cl)cccc3Cl)noc2C(C)C)cc1Cl)c1cccc(C(=O)O)c1 | – | 5.68 | –
6 | O=C(O)c1cccc(/C=C/c2ccc(OCc3c(-c4c(Cl)cccc4Cl)noc3-c3ccc4ccccc4c3)cc2Cl)c1 | inactive | – | pIC50 [4]: 4.65
7 | CC(C)(C)c1onc(-c2c(Cl)cccc2Cl)c1COc1ccc(C(=O)Nc2cccc(C(=O)O)c2)c(Cl)c1 | – | 5.89 | –
8 | O=C(O)c1cccc(NC(=O)c2ccc(OCc3c(-c4c(Cl)cccc4Cl)noc3-c3ccc4ccccc4c3)cc2Cl)c1 | inactive | – | Activity [5]: inactive; pIC50 [4]: 5.40; Activity [2]: inactive
9 | CC(C)c1onc(-c2ccc3ccccc3c2)c1COc1ccc(/C=C/c2cccc(C(=O)O)c2)c(Cl)c1 | inactive | – | –
10 | CC(C)c1onc(-c2c(Cl)cccc2Cl)c1COc1ccc(C(=O)N(C)c2cccc(C(=O)O)c2)c(Cl)c1 | – | 5.51 | –
11 | CC(C)c1onc(-c2ccc(-c3ccccc3)cc2)c1COc1ccc(/C=C/c2cccc(C(=O)O)c2)c(Cl)c1 | inactive | – | –
12 | CCCNC(=O)c1cccc(/C=C/c2ccc(OCc3c(-c4c(Cl)cccc4Cl)noc3C(C)C)cc2Cl)c1 | – | 5.05 | –
13 | O=C(O)c1cccc(/C=C/c2ccc(OCc3c(-c4c(Cl)cccc4Cl)noc3-c3ccccc3)cc2Cl)c1 | inactive | – | pIC50 [4]: 4.80
14 | CC(C)c1onc(-c2c(Cl)cccc2Cl)c1COc1ccc(C(=O)Nc2cccc(C(=O)O)c2)c(Cl)c1 | – | 5.52 | –
15 | O=C(O)c1cccc(NC(=O)c2ccc(OCc3c(-c4c(Cl)cccc4Cl)noc3-c3ccc(-c4ccccc4)cc3)cc2Cl)c1 | inactive | – | Activity [5]: Active; pIC50 [4]: 5.43
16 | CC(C)c1onc(-c2c(Cl)cccc2Cl)c1COc1ccc(C(=O)N(CCc2ccccc2)c2cccc(C(=O)O)c2)c(Cl)c1 | – | 6.08 | –
17 | CC(C)(C)c1onc(-c2c(Cl)cccc2Cl)c1COc1ccc(/C=C/c2cccc(C(=O)O)c2)c(Cl)c1 | – | 5.89 | –
